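These data come from cells grown in 96-well plates and exposed to compound for 48 hours at five concentrations. TGI denotes the concentration required for complete inhibition of growth.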
Legend:
Experiment in all cases: NCI tumour cell line growth inhibition, 48 h
[1] = tested on: SR leukemia
[2] = tested on: HOP-92 NSCLC
[3] = tested on: HCC-2998 colon
[4] = tested on: MDA-MB-435
[5] = tested on: MOLT-4 leukemia
[6] = tested on: SK-MEL-2 melanoma
[7] = tested on: UO-31 renal
[8] = tested on: M14 melanoma
[9] = tested on: T-47D breast
[10] = tested on: TK-10 renal
[11] = tested on: SK-MEL-5 melanoma
[12] = tested on: NCI-H226 lung
[13] = tested on: BT-549 breast
[14] = tested on: OVCAR-3 ovarian
[15] = tested on: NCI-H23 lung
[16] = tested on: SNB-19 CNS
[17] = tested on: 786-0 renal
[18] = tested on: DU-145 prostate
[19] = tested on: EKVX NSCLC
[20] = tested on: HOP-62 NSCLC
[21] = tested on: HCT-116 colon
[22] = tested on: UACC-257 melanoma
[23] = tested on: HCT-15 colon
[24] = tested on: ACHN renal
[25] = tested on: UACC-62 melanoma
[26] = tested on: MALME-3M melanoma
[27] = tested on: CCRF-CEM leukemia
[28] = tested on: LOX IMVI melanoma
[29] = tested on: SNB-75 CNS
[30] = tested on: IGROV1 ovarian
[31] = tested on: A549 NSCLC
[32] = tested on: MDA-N
[33] = tested on: SN12C renal
[34] = tested on: K-562 leukemia
[35] = tested on: OVCAR-5 ovarian
[36] = tested on: OVCAR-4 ovarian
[37] = tested on: MDA-MB-231 breast
[38] = tested on: KM12 colon
[39] = tested on: SK-MEL-28 melanoma
[40] = tested on: COLO 205 colon
[41] = tested on: HL-60(TB) leukemia
[42] = tested on: PC-3 prostate
[43] = tested on: OVCAR-8 ovarian
[44] = tested on: A498 renal
[45] = tested on: HS 578T breast
[46] = tested on: U251 CNS
[47] = tested on: NCI-H460 lung
[48] = tested on: CAKI-1 renal
[49] = tested on: NCI/ADR-RES ovarian
[50] = tested on: SW-620 colon
[51] = tested on: HT29 colon
[52] = tested on: SF-268 CNS
[53] = tested on: RXF 393 renal
[54] = tested on: NCI-H522 lung
[55] = tested on: SF-295 CNS
[56] = tested on: SF-539 CNS
[57] = tested on: SK-OV-3 ovarian
[58] = tested on: RPMI-8226 leukemia

COc1ccc(CCCNC(=O)Cc2cc(OC)c(OC)cc2CO)cc1OC
TGI [1]: > 100 µM | TGI [2]: > 100 µM | TGI [3]: > 100 µM | TGI [4]: > 100 µM | TGI [5]: > 100 µM | TGI [6]: > 100 µM | TGI [7]: > 100 µM | TGI [8]: > 100 µM | TGI [9]: > 100 µM | TGI [10]: > 100 µM | TGI [11]: > 100 µM | TGI [12]: > 100 µM | TGI [13]: > 100 µM | TGI [14]: > 100 µM | TGI [15]: > 100 µM | TGI [16]: > 100 µM | TGI [17]: > 100 µM | TGI [18]: > 100 µM | TGI [19]: > 100 µM | TGI [20]: > 100 µM | TGI [21]: > 100 µM | TGI [22]: > 100 µM | TGI [23]: > 100 µM | TGI [24]: > 100 µM | TGI [25]: > 100 µM | TGI [26]: > 100 µM | TGI [27]: > 100 µM | TGI [28]: > 100 µM | TGI [29]: > 100 µM | TGI [30]: > 100 µM | TGI [31]: > 100 µM | TGI [32]: > 100 µM | TGI [33]: > 100 µM | TGI [34]: > 100 µM | TGI [35]: > 100 µM | TGI [36]: > 100 µM | TGI [37]: > 100 µM | TGI [38]: > 100 µM | TGI [39]: > 100 µM | TGI [40]: > 100 µM | TGI [41]: > 100 µM | TGI [42]: > 100 µM | TGI [43]: > 100 µM | TGI [44]: > 100 µM | TGI [45]: > 100 µM | TGI [46]: > 100 µM | TGI [47]: > 100 µM | TGI [48]: > 100 µM | TGI [49]: > 100 µM | TGI [50]: > 100 µM | TGI [51]: > 100 µM

Cc1ccc(S(=O)(=O)NC(C(=O)O)C(C)C)cc1 (centres undefined)
TGI [1]: > 100 µM | TGI [2]: > 100 µM | TGI [3]: > 100 µM | TGI [4]: > 100 µM | TGI [5]: > 100 µM | TGI [6]: > 100 µM | TGI [7]: > 100 µM | TGI [8]: > 100 µM | TGI [9]: > 100 µM | TGI [10]: > 100 µM | TGI [11]: > 100 µM | TGI [12]: > 100 µM | TGI [52]: > 100 µM | TGI [13]: > 100 µM | TGI [14]: > 100 µM | TGI [15]: > 100 µM | TGI [16]: > 100 µM | TGI [17]: > 100 µM | TGI [18]: > 100 µM | TGI [19]: > 100 µM | TGI [20]: > 100 µM | TGI [21]: > 100 µM | TGI [22]: > 100 µM | TGI [23]: > 100 µM | TGI [24]: > 100 µM | TGI [25]: > 100 µM | TGI [26]: > 100 µM | TGI [27]: > 100 µM | TGI [28]: > 100 µM | TGI [29]: > 100 µM | TGI [30]: > 100 µM | TGI [53]: > 100 µM | TGI [31]: > 100 µM | TGI [32]: > 100 µM | TGI [33]: > 100 µM | TGI [54]: > 100 µM | TGI [34]: > 100 µM | TGI [35]: > 100 µM | TGI [36]: > 100 µM | TGI [37]: > 100 µM | TGI [38]: > 100 µM | TGI [39]: > 100 µM | TGI [42]: > 100 µM | TGI [43]: > 100 µM | TGI [44]: > 100 µM | TGI [45]: > 100 µM | TGI [46]: > 100 µM | TGI [47]: > 100 µM | TGI [48]: > 100 µM | TGI [49]: > 100 µM | TGI [50]: > 100 µM | TGI [55]: > 100 µM | TGI [51]: > 100 µM

Cc1nn(C(=O)c2ccccc2O)c2c1C(c1ccco1)SC(N)=N2 (centres undefined)
TGI [1]: > 10 µM | TGI [2]: > 10 µM | TGI [4]: > 10 µM | TGI [5]: > 10 µM | TGI [6]: > 10 µM | TGI [7]: > 10 µM | TGI [8]: > 10 µM | TGI [9]: > 10 µM | TGI [10]: > 10 µM | TGI [12]: > 10 µM | TGI [52]: > 10 µM | TGI [13]: > 10 µM | TGI [14]: > 10 µM | TGI [15]: > 10 µM | TGI [16]: > 10 µM | TGI [17]: > 10 µM | TGI [18]: > 10 µM | TGI [19]: > 10 µM | TGI [56]: > 10 µM | TGI [20]: 6.8 µM | TGI [21]: > 10 µM | TGI [57]: > 10 µM | TGI [22]: > 10 µM | TGI [23]: > 10 µM | TGI [24]: > 10 µM | TGI [25]: 6 µM | TGI [26]: > 10 µM | TGI [27]: > 10 µM | TGI [28]: > 10 µM | TGI [29]: > 10 µM | TGI [30]: > 10 µM | TGI [53]: > 10 µM | TGI [31]: > 10 µM | TGI [32]: > 10 µM | TGI [33]: > 10 µM | TGI [34]: > 10 µM | TGI [35]: > 10 µM | TGI [36]: > 10 µM | TGI [37]: > 10 µM | TGI [38]: > 10 µM | TGI [39]: > 10 µM | TGI [40]: > 10 µM | TGI [41]: > 10 µM | TGI [42]: > 10 µM | TGI [43]: > 10 µM | TGI [44]: > 10 µM | TGI [45]: > 10 µM | TGI [46]: > 10 µM | TGI [58]: > 10 µM | TGI [47]: > 10 µM | TGI [48]: > 10 µM | TGI [49]: 8.16 µM | TGI [50]: > 10 µM | TGI [55]: > 10 µM | TGI [51]: > 10 µM
